Laboratory results as given in ChEMBL document CHEMBL3588755, “hERG Channel Inhibitory Daphnane Diterpenoid Orthoesters and Polycephalones A and B with Unprecedented Skeletons from Gnidia polycephala” (J Nat Prod, 2015).

Columns and labels:
hERG (KCNH2) = hERG (KCNH2) (Homo sapiens, UniProt Q12809); experiment: Inhibition of human ERG expressed in Xenopus laevis oocytes at 100 uM incubated for 3 mins at holding potential of -100 mV followed by depolarization to +20 mV and repolarization to -50 mV by two-microelectrode voltage clamp assay; assay type: cell-based; settings: Xenopus laevis oocytes expressing human ERG
Sequence of hERG (KCNH2) (Q12809 whole entry): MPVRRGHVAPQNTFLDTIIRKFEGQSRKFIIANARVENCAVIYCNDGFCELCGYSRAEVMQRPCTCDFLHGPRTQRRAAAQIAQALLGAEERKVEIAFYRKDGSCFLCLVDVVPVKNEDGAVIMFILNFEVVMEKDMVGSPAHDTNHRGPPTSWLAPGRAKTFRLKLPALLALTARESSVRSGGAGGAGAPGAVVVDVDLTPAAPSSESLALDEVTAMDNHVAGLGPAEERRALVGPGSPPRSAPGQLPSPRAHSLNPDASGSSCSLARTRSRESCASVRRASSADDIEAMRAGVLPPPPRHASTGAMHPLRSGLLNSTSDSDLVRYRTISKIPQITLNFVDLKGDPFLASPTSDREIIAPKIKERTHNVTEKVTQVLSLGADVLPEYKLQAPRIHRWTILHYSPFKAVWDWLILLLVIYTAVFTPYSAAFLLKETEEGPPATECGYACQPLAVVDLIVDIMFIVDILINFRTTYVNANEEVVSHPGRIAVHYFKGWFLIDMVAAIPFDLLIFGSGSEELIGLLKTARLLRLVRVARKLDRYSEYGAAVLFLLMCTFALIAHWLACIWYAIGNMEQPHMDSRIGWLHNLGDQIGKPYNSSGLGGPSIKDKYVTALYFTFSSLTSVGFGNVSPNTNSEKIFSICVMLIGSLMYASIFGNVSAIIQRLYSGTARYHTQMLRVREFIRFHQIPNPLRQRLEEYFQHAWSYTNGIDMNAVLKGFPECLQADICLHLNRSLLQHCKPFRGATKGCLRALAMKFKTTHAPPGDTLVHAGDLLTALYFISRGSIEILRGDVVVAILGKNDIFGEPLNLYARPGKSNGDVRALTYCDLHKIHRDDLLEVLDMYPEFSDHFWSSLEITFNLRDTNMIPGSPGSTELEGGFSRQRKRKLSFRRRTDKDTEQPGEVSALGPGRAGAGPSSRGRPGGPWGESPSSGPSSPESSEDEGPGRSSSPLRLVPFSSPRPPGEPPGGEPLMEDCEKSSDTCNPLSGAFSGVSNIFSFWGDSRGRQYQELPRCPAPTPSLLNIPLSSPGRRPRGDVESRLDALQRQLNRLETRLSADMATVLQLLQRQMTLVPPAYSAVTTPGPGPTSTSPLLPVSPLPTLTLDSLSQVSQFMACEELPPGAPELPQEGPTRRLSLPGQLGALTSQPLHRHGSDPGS

[1] = Retention time of the compound by HPLC method; assay type: physicochemical

| Compound | inhibition at 0.05 h, 100 µM (hERG (KCNH2)) [%] | Retention_time [1] [min] |
| --- | --- | --- |
| C=C(C)[C@]12OC3(/C=C/C=C/CCCCC)O[C@@H]1[C@@H]1[C@@H]4O[C@]4(CO)[C@@H](O)[C@]4(O)C(=O)C(C)=C[C@H]4[C@@]1(O3)[C@H](C)[C@H]2OC(=O)c1ccccc1 | 51.3 | 25.5 |
| C=C(C)[C@]12OC3(/C=C\C=C/CCCCC)O[C@@H]1[C@@H]1[C@@H]4O[C@]4(CO)[C@@H](O)[C@]4(O)C(=O)C(C)=C[C@H]4[C@@]1(O3)[C@H](C)[C@H]2OC(=O)c1ccccc1 | 42.5 | 23.5 |
| C=C(C)[C@@]12C[C@@H](C)[C@@]34OC(/C=C\C=C/CCCCC)(O[C@@H]1[C@@H]3[C@@H]1O[C@]1(CO)[C@@H](O)[C@]1(O)C(=O)C(C)=C[C@H]14)O2 | 55.4 | 18.9 |
